Legend:
[1] = molecular target: T1, Polyunsaturated fatty acid lipoxygenase ALOX15 (Oryctolagus cuniculus, UniProt P12530); assay: biochemical; assay type: tissue-based, Reticulocytes; conditions: reticulocytes;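 note: inhibition of 15-lipoxygenase enzyme activity measured with linoleic acid as the substrate; in other assays of this panel Not Active means under 50% inhibition at 10 µM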
T1 sequence (P12530 whole entry): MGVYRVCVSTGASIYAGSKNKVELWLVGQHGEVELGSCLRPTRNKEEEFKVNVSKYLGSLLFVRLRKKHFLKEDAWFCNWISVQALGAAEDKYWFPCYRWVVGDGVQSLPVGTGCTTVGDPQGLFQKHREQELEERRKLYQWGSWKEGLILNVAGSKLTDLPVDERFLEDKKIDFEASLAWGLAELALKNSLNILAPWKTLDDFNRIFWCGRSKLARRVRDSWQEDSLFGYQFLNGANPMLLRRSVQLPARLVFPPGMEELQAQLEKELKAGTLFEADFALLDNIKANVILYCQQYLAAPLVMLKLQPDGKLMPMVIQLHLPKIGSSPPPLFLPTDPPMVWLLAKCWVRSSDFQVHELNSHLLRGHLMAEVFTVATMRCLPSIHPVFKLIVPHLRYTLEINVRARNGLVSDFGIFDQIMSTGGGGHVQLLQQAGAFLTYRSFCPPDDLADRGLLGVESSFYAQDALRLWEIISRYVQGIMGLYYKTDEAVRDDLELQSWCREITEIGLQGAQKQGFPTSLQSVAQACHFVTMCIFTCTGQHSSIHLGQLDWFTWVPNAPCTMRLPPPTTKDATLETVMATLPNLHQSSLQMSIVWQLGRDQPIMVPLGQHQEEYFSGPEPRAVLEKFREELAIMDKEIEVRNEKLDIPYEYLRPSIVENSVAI

[2] = DRUGMATRIX: Phorbol Ester radioligand binding (ligand: [3H] PDBu); assay type: cell membranes, Mus musculus, ICR, Brain, Membrane; conditions: Not Active = under 50% inhibition at 10 µM
Cytochrome P450 2C9 = Cytochrome P450 2C9 (Homo sapiens, UniProt P11712); conditions: bti-tn-5b1-4; note: in other assays of this panel Not Active means under 50% inhibition at 10 µM
Cytochrome P450 2C9, sequence (P11712 whole entry): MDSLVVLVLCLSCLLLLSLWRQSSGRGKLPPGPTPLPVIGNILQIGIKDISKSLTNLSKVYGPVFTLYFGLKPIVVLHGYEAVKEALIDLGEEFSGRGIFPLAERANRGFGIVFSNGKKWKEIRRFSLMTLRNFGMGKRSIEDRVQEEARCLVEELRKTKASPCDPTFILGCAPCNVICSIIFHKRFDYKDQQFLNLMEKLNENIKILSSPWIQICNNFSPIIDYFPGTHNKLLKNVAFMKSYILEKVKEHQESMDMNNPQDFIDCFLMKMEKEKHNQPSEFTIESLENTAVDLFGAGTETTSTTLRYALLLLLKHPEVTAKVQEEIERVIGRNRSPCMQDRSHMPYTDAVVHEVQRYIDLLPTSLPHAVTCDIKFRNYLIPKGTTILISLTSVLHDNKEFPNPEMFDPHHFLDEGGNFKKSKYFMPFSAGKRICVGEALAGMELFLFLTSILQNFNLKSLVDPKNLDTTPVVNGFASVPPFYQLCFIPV

[3] = molecular target: 5-hydroxytryptamine receptor 1B (Rattus norvegicus, UniProt P28564); assay type: cell membranes, Wistar, Cerebral cortex, Membrane; note: in other assays of this panel Not Active means under 50% inhibition at 10 µM
5-hydroxytryptamine receptor 1B, sequence (P28564 whole entry): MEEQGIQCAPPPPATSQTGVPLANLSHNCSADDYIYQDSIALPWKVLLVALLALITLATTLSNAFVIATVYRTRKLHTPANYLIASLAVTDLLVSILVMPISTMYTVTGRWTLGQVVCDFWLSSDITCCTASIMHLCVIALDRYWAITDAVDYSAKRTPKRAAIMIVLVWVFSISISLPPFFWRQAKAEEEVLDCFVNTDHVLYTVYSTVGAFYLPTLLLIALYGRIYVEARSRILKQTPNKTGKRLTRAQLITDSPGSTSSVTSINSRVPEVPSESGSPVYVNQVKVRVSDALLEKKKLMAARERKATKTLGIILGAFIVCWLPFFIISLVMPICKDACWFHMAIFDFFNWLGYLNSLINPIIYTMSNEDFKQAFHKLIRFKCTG

[4] = DRUGMATRIX: Interleukin IL-1 radioligand binding (ligand: [125I] interleukin 1beta); assay type: cell membranes, Membrane; conditions: nih3t3; Not Active = under 50% inhibition at 10 µM
[5] = DRUGMATRIX: Sigma2 radioligand binding (ligand: [3H] Ifenprodil); assay type: cell membranes, Rattus norvegicus, Wistar, Brain, Membrane; conditions: Not Active = under 50% inhibition at 10 µM
[6] = molecular target: T2, Nitric oxide synthase, inducible (Mus musculus, UniProt P29477); design: species or system Escherichia coli;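 note: inhibition of iNOS enzyme activity measured with L-arginine as substrate; in other assays of this panel Not Active means under 50% inhibition at 10 µM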
T2 sequence (P29477 whole entry): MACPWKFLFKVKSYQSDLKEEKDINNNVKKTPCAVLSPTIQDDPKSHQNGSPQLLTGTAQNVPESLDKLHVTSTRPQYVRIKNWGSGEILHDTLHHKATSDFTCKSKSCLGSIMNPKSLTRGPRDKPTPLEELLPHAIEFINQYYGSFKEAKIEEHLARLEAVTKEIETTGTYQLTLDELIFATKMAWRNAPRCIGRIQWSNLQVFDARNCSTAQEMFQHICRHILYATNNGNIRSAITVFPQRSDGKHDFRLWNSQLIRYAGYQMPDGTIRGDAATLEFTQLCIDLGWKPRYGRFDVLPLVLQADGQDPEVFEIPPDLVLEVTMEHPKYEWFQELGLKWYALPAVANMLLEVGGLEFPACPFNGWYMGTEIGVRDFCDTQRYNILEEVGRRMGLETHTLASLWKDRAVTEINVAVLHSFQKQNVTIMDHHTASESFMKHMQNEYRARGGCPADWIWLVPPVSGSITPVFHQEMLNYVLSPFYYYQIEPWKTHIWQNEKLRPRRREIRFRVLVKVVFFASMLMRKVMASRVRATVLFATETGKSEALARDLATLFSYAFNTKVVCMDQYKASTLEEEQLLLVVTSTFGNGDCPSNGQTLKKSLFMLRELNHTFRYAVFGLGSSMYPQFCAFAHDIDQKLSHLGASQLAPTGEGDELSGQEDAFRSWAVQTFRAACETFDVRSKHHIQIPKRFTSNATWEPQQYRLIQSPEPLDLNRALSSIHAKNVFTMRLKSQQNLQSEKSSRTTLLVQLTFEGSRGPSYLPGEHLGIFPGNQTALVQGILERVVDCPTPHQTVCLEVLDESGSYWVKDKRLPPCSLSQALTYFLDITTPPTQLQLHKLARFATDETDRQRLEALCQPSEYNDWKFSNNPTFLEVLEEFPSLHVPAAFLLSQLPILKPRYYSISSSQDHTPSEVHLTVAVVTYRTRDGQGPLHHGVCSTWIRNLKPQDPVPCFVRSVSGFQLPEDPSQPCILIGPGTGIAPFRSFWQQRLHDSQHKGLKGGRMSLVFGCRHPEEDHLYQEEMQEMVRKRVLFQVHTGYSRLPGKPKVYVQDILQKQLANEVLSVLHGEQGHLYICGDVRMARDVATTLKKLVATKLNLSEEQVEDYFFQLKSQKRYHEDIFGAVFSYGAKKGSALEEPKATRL

[7] = molecular target: Vascular endothelial growth factor receptor 1 (Homo sapiens, UniProt P17948); assay: biochemical; assay type: cell-based, HUVEC; conditions: huvec; note: in other assays of this panel Not Active means under 50% inhibition at 10 µM
Vascular endothelial growth factor receptor 1, sequence (P17948 whole entry): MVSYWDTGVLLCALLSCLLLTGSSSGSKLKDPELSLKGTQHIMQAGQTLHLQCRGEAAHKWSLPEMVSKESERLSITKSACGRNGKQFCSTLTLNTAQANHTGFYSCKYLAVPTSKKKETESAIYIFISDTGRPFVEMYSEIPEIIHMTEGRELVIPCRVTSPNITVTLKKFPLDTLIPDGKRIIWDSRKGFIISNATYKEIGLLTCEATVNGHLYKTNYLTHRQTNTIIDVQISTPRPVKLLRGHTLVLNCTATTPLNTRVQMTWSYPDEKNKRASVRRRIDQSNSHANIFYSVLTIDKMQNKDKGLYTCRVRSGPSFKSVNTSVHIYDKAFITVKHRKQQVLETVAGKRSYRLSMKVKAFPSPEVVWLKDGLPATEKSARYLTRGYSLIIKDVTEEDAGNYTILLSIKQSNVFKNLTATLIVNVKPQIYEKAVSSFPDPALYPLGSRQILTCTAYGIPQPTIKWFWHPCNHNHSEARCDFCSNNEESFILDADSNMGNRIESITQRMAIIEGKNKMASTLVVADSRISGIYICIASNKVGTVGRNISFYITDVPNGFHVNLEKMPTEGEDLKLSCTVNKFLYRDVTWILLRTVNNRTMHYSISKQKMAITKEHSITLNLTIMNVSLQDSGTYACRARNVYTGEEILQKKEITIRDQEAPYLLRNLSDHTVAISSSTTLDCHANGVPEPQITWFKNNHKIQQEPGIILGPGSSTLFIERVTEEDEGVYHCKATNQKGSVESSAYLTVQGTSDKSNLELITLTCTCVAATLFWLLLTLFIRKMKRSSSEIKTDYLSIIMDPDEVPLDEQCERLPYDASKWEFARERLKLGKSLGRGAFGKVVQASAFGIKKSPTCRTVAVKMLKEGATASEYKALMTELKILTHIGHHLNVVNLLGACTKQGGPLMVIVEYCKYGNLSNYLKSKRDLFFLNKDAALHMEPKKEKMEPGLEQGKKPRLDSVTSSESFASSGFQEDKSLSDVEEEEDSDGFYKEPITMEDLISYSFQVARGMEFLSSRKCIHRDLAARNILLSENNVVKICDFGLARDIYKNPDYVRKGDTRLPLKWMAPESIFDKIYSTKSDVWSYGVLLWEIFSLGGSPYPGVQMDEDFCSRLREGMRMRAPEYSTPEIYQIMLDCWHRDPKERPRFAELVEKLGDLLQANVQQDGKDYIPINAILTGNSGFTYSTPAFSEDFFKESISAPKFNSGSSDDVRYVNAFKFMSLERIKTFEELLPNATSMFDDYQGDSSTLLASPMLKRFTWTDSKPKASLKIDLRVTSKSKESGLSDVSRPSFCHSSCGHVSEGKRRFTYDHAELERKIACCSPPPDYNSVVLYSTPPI

[8] = molecular target: 5-hydroxytryptamine receptor 4 (Cavia porcellus, UniProt O70528); assay type: cell membranes, Dunkin-Hartley, Striatum, Membrane; note: in other assays of this panel Not Active means under 50% inhibition at 10 µM
5-hydroxytryptamine receptor 4, sequence (O70528 whole entry): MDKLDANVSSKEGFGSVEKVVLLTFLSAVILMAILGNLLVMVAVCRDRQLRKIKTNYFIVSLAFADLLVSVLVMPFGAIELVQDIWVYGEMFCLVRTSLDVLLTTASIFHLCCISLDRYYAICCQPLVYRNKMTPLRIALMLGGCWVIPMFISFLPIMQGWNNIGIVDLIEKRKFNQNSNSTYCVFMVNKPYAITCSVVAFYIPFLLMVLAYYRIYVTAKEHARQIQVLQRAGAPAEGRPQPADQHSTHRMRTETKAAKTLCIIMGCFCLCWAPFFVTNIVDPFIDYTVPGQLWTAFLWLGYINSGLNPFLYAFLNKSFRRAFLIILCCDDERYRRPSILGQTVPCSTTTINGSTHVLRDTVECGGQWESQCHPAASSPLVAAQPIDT

STANNOUS FLUORIDE
Not Active: IC50 [1] | Ki [1] | IC50 [2] | Ki [2] | IC50 (Cytochrome P450 2C9) | Ki (Cytochrome P450 2C9) | IC50 [3] | Ki [3] | IC50 [4] | Ki [4] | IC50 [5] | Ki [5] | IC50 [6] | Ki [6] | IC50 [7] | Ki [7] | IC50 [8] | Ki [8]

COc1ccc(/C=C/C(=O)Nc2ccccc2C(=O)O)cc1OC
Not Active: IC50 [1] | IC50 [2] | Ki [2] | IC50 (Cytochrome P450 2C9) | Ki (Cytochrome P450 2C9) | IC50 [3] | IC50 [4] | Ki [4] | IC50 [5] | Ki [5] | IC50 [6] | IC50 [7] | IC50 [8]

Reference: ChEMBL document CHEMBL1909046, “DrugMatrix in vitro pharmacology data”
